Common to all, as to experiment: biochemical
Holding throughout (parameters): DiscoverX KINOMEscan scanMAX competition binding panel, single concentration, percent of control; remaining binding: dose or concentration left out as unconfirmed
Holding throughout (conditions): KINOMEscan binding, percent of control; read-out: Table S4_SCANMAX REPORT - related to Fig. 1 / Percent Control

Assay [1] has as its target HUNK (Homo sapiens, UniProt P57058).
The target of assay [2] is EGFR(S752-I759del) (Homo sapiens, UniProt P00533, DEL752-759).
Assay [3] deals with T1, ARK5 (Homo sapiens, UniProt O60285).
T1 construct: gene NUAK1

The target in assay [4] is PAK3 (Homo sapiens, UniProt O75914).
Assay [5] concerns the target CSNK1E (Homo sapiens, UniProt P49674).
For assay [6], the target named is MAP3K4 (Homo sapiens, UniProt Q9Y6R4).
For assay [7], the target named is T2, RPS6KA4(Kin.Dom.2-C-terminal) (Homo sapiens, UniProt O75676).
T2 construct: Kin.Dom.2-C-terminal

The target in assay [8] is T3, ABL1(F317I)-nonphosphorylated (Homo sapiens, UniProt P00519, F317I).
T3 construct: nonphosphorylated

Assay [9] concerns the target NLK (Homo sapiens, UniProt Q9UBE8).
For assay [10], the target named is MAP4K2 (Homo sapiens, UniProt Q12851).
Assay [11] deals with ERBB2 (Homo sapiens, UniProt P04626).
The target of assay [12] is WNK2 (Homo sapiens, UniProt Q9Y3S1).
Assay [13] concerns the target CAMK1 (Homo sapiens, UniProt Q14012).
Assay [14] has as its target T4, MLK1 (Homo sapiens, UniProt P80192).
T4 construct: gene MAP3K9

The target in assay [15] is RIOK1 (Homo sapiens, UniProt Q9BRS2).
Assay [16] concerns the target WEE1 (Homo sapiens, UniProt P30291).
Assay [17] deals with T5, SGK (Homo sapiens, UniProt O00141).
T5 construct: gene SGK1

In assay [18] the target is T6, PFCDPK1(P.falciparum) (Plasmodium falciparum, UniProt P62344).
T6 construct: gene CDPK1
T6 sequence (P62344 whole entry): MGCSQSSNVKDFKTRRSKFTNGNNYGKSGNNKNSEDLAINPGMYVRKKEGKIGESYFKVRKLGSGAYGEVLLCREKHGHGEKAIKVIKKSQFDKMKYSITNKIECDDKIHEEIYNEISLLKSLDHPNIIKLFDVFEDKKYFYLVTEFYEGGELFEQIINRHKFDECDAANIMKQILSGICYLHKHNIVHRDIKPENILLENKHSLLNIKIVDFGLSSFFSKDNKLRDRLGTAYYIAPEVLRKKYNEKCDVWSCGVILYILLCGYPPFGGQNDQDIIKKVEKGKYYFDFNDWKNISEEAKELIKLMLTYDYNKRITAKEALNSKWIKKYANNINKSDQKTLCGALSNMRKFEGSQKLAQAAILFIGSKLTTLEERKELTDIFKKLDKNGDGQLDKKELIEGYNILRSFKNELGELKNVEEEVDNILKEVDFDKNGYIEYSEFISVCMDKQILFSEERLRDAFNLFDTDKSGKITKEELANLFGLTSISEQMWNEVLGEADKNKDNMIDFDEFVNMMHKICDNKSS

Sequence of ERBB2 (P04626 whole entry): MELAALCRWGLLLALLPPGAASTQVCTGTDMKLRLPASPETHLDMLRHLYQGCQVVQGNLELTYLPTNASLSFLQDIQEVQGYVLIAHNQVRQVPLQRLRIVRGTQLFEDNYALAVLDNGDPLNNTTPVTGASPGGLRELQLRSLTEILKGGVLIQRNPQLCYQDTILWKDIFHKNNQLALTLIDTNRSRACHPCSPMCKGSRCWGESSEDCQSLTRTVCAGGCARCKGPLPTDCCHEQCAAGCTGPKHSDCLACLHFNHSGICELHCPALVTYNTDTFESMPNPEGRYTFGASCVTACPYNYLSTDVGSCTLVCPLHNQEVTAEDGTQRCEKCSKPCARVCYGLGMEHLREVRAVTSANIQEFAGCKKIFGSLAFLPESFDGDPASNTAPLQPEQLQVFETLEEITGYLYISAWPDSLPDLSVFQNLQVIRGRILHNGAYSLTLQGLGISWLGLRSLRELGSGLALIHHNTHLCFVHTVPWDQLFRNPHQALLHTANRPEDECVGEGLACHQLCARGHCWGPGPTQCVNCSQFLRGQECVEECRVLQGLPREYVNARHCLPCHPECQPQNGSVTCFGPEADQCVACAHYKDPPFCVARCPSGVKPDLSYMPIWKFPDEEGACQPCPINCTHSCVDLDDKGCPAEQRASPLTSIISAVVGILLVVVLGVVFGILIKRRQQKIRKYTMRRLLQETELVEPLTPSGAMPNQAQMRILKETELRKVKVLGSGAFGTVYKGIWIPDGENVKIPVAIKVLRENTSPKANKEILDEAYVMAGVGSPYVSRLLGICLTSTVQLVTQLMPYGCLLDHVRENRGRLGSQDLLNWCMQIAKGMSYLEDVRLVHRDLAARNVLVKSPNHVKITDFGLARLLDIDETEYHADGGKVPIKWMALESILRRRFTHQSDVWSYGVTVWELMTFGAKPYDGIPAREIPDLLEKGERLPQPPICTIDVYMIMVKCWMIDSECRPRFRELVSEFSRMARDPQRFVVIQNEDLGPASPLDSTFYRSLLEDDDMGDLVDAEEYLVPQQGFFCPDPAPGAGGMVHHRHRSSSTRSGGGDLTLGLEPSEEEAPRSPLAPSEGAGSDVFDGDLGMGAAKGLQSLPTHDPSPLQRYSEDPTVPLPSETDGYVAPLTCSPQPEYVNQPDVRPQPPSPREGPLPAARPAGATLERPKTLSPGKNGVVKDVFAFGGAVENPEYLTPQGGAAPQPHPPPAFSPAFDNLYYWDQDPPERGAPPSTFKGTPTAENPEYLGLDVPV
Sequence of EGFR(S752-I759del) (P00533 with tags, fused parts or gaps DEL752-759): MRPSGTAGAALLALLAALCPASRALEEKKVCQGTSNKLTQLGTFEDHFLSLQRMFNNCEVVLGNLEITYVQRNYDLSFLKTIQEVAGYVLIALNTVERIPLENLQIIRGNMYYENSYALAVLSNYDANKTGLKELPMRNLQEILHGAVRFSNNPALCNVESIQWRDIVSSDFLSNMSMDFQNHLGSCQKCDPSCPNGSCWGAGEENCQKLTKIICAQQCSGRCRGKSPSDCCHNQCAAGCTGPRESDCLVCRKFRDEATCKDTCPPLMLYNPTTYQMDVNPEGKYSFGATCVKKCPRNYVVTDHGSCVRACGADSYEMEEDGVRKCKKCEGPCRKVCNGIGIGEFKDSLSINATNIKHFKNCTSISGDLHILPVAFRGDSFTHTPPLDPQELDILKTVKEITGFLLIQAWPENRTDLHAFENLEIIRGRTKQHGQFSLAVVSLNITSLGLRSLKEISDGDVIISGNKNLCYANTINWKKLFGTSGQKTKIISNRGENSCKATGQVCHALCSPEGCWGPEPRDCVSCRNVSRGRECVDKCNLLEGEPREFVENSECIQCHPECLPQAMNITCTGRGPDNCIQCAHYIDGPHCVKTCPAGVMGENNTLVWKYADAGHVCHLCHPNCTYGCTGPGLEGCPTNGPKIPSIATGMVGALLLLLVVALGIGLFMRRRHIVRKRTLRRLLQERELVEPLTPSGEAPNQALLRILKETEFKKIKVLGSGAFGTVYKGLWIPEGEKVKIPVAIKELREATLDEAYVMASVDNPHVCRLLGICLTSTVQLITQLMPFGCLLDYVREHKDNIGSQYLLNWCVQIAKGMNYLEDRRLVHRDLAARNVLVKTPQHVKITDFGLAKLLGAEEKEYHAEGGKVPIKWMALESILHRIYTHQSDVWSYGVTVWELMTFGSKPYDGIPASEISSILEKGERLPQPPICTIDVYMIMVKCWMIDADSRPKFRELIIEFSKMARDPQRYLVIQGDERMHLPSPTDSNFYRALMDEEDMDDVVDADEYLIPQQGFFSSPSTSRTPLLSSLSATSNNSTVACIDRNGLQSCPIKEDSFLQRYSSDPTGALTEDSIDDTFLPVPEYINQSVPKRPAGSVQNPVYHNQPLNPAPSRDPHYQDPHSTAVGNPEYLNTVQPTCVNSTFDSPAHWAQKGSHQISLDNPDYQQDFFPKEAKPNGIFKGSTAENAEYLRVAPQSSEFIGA
Sequence of WEE1 (P30291 whole entry): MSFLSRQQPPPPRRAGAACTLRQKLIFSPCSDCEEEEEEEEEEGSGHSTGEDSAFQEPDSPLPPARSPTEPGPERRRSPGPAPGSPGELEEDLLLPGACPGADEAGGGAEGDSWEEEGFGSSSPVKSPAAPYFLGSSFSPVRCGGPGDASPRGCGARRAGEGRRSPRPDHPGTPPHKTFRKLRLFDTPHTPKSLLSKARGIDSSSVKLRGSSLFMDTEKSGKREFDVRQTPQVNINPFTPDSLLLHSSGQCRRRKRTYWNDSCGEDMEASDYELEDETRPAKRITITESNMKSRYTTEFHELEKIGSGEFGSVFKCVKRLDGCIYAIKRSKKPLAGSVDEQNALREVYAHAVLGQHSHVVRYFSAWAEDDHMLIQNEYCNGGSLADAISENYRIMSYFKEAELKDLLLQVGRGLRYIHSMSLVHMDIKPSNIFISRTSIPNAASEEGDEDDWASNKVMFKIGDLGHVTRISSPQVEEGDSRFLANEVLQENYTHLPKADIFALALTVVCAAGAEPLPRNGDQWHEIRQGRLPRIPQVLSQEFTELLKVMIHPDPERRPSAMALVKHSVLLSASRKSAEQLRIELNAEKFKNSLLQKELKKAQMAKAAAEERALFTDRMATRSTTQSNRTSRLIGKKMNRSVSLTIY
Sequence of RIOK1 (Q9BRS2 whole entry): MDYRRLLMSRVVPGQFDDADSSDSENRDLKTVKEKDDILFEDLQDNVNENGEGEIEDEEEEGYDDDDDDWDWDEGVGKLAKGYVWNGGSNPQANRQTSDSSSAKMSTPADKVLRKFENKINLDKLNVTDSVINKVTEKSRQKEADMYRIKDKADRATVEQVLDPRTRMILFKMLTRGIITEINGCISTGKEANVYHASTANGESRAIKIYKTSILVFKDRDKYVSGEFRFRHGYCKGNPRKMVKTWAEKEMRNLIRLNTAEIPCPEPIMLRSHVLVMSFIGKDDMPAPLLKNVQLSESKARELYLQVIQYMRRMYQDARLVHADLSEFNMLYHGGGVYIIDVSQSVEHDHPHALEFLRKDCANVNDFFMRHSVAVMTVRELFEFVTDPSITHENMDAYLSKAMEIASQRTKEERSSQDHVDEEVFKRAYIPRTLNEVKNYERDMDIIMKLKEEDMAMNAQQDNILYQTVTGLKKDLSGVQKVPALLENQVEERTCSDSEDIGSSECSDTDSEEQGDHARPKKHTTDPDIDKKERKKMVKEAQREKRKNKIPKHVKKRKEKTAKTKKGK
Sequence of NLK (Q9UBE8 whole entry): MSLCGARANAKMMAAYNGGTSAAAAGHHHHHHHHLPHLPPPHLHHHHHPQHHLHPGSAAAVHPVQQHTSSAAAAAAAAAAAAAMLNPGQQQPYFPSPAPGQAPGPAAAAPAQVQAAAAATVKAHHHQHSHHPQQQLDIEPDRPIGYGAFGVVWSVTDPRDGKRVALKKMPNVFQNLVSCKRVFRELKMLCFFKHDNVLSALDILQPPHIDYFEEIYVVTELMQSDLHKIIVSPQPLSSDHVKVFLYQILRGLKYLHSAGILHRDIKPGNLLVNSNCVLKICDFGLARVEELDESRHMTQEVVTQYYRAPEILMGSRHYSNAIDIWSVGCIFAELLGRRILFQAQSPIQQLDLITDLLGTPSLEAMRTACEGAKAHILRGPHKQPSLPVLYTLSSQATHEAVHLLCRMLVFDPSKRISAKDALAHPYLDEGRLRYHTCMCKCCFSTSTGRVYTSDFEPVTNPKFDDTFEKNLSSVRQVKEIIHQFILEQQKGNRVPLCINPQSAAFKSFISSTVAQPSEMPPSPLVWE

Regarding `c1ccc2c(c1)Sc1ccccc1N2CCN1CCOCC1` [J54], the remaining binding is 58% in assay [1]; 94% in assay [2]; 79% in assay [3]; 100% in [4]; 100% in assay [5]; 97% in assay [6]. The remaining binding was 94% in assay [7]; 92% in assay [8]; 91% in assay [9]; 100% in [10]; 100% in assay [11]; 100% in [12]. The remaining binding is 97% in assay [13]; 97% in [14]; 59% in [15]; 78% in [16]; 93% in [17]; 100% in assay [18].
